According to patent US10385022B2, “3-amino-pyridines as GPBAR1 agonists” (HOFFMANN-LA ROCHE INC., priority 2011, dated 2019):

Molecular target: human GPBAR1 receptor (Homo sapiens (Human), UniProt Q8TDU6)
Test: functional cAMP assay in CHO-dhfr(minus) cells expressing human GPBAR1 receptors
Type: cell-based
Conditions: CHO-dhfr(minus) cells expressing human GPBAR1, 30 min at 30° C.
Method: The final clone was verified by DNA sequence analysis. The plasmid was transfected into CHO cells deficient in dihydrofolate reductase activity (CHO-dhfr-) using Lipofectamine plus (Invitrogen). Clones were isolated in limited dilution conditions and identified by activities in the cAMP assay using lithocholic acid as agonist.
EC50 values were determined using Activity Base analysis (ID Business Solution, Limited). […] Specificity for GPBAR1 was tested in non-transfected CHO cells in the same assay as above.

Sequence of human GPBAR1 receptor (Q8TDU6 whole entry): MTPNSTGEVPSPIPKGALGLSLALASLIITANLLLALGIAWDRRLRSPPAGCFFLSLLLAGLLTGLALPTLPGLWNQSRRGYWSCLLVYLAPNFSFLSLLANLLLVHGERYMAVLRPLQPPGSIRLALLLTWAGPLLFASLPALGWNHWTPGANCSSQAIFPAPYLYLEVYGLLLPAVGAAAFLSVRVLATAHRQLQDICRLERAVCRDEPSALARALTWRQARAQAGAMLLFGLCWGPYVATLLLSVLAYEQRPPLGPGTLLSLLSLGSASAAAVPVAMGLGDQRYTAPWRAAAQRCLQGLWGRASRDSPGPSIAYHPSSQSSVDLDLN

| EC50 [nM] | Structure (SMILES) |
| --- | --- |
| 40 | CN(C(=O)c1cc(C(F)(F)F)cc(C(F)(F)F)c1)c1cnccc1-c1ccc(F)cc1F [Example 37, N-[4-(2,4-Difluoro-phenyl)-pyridin-3-yl]-N-methyl-3,5-bis-trifluoromethyl-benzamide] |
| 11 | COc1cc(F)ccc1-c1ccncc1N(C)C(=O)c1cc(C(F)(F)F)cc(C(F)(F)F)c1 [Example 38, N-[4-(4-Fluoro-2-methoxy-phenyl)-pyridin-3-yl]-N-methyl-3,5-bis-trifluoromethyl-benzamide] |
| 38 | COc1cc(F)c(F)cc1-c1ccncc1N(C)C(=O)c1cc(C(F)(F)F)cc(C(F)(F)F)c1 [Example 39, N-[4-(4,5-Difluoro-2-methoxy-phenyl)-pyridin-3-yl]-N-methyl-3,5-bis-trifluoromethyl-benzamide] |
| 107 | CN(C(=O)c1cc(C(F)(F)F)cc(C(F)(F)F)c1)c1cnccc1-c1cccc(F)c1F [Example 40, N-[4-(2,3-Difluoro-phenyl)-pyridin-3-yl]-N-methyl-3,5-bis-trifluoromethyl-benzamide] |
| 90 | COc1c(F)cccc1-c1ccncc1N(C)C(=O)c1cc(C(F)(F)F)cc(C(F)(F)F)c1 [Example 41, N-[4-(3-Fluoro-2-methoxy-phenyl)-pyridin-3-yl]-N-methyl-3,5-bis-trifluoromethyl-benzamide] |
| 119 | Cc1ccc(F)c(-c2ccncc2N(C)C(=O)c2cc(C(F)(F)F)cc(C(F)(F)F)c2)c1 [Example 42, N-[4-(2-Fluoro-5-methyl-phenyl)-pyridin-3-yl]-N-methyl-3,5-bis-trifluoromethyl-benzamide] |
| 2050 | CN(C(=O)c1cc(C(F)(F)F)cc(C(F)(F)F)c1)c1cnccc1-c1ccc(F)cc1OCc1ccccc1 [Example 43, N-[4-(2-Benzyloxy-4-fluoro-phenyl)-pyridin-3-yl]-N-methyl-3,5-bis-trifluoromethyl-benzamide] |
| 30 | COc1ncc(F)cc1-c1ccncc1N(C)C(=O)c1cc(C(F)(F)F)cc(C(F)(F)F)c1 [Example 44, N-(5-Fluoro-2-methoxy-[3,4′]bipyridinyl-3′-yl)-N-methyl-3,5-bis-trifluoromethyl-benzamide] |
| 302 | COc1ncc(Cl)cc1-c1ccncc1N(C)C(=O)c1cc(C(F)(F)F)cc(C(F)(F)F)c1 [Example 45, N-(5-Chloro-2-methoxy-[3,4′]bipyridinyl-3′-yl)-N-methyl-3,5-bis-trifluoromethyl-benzamide] |
| 924 | CC(C)Oc1ncccc1-c1ccncc1N(C)C(=O)c1cc(C(F)(F)F)cc(C(F)(F)F)c1 [Example 46, N-(2-Isopropoxy-[3,4′]bipyridinyl-3′-yl)-N-methyl-3,5-bis-trifluoromethyl-benzamide] |
| 68 | COc1nc(C)ccc1-c1ccncc1N(C)C(=O)c1cc(C(F)(F)F)cc(C(F)(F)F)c1 [Example 47, N-(2-Methoxy-6-methyl-[3,4′]bipyridinyl-3′-yl)-N-methyl-3,5-bis-trifluoromethyl-benzamide] |
| 307 | CN(C(=O)c1cc(C(F)(F)F)cc(C(F)(F)F)c1)c1cnccc1-c1ccc(F)cc1O [Example 48, N-[4-(4-Fluoro-2-hydroxy-phenyl)-pyridin-3-yl]-N-methyl-3,5-bis-trifluoromethyl-benzamide] |
| 629 | COC(=O)COc1cc(F)ccc1-c1ccncc1N(C)C(=O)c1cc(C(F)(F)F)cc(C(F)(F)F)c1 [Example 49, (2-{3-[(3,5-Bis-trifluoromethyl-benzoyl)-methyl-amino]-pyridin-4-yl}-5-fluoro-phenoxy)-acetic acid methyl ester] |
| 678 | COc1nccc(-c2ccncc2N(C)C(=O)c2cc(C(F)(F)F)cc(C(F)(F)F)c2)c1Cl [Example 50, N-(3′-Chloro-2′-methoxy-[4,4′]bipyridinyl-3-yl)-N-methyl-3,5-bis-trifluoromethyl-benzamide] |
| 60 | CN(C(=O)c1cc(C(F)(F)F)cc(C(F)(F)F)c1)c1cnccc1-c1ccc(F)cc1OCC#N [Example 51, N-[4-(2-Cyanomethoxy-4-fluoro-phenyl)-pyridin-3-yl]-N-methyl-3,5-bis-trifluoromethyl-benzamide] |
| 463 | CN(C(=O)c1cc(C(F)(F)F)cc(C(F)(F)F)c1)c1cnccc1-c1ccc(F)cc1OCCO [Example 52, N-{4-[4-Fluoro-2-(2-hydroxy-ethoxy)-phenyl]-pyridin-3-yl}-N-methyl-3,5-bis-trifluoromethyl-benzamide] |
| 1100 | CC(C#N)Oc1cc(F)ccc1-c1ccncc1N(C)C(=O)c1cc(C(F)(F)F)cc(C(F)(F)F)c1 (stereo not drawn) [Example 53, N-{4-[2-(Cyano-methyl-methoxy)-4-fluoro-phenyl]-pyridin-3-yl}-N-methyl-3,5-bis-trifluoromethyl-benzamide] |
| 1970 | COc1cc(-c2ccncc2N(C)C(=O)c2cc(C(F)(F)F)cc(C(F)(F)F)c2)c(OC)nn1 [Example 54, N-[4-(3,6-Dimethoxy-pyridazin-4-yl)-pyridin-3-yl]-N-methyl-3,5-bis-trifluoromethyl-benzamide] |

| EC50 [nM] | Structure (SMILES) |
| --- | --- |
| 435 | CN(C(=O)c1cc(C(F)(F)F)cc(C(F)(F)F)c1)c1cnccc1-c1cc(F)cnc1Cl [Example 55, N-(2-Chloro-5-fluoro-[3,4′]bipyridinyl-3′-yl)-N-methyl-3,5-bis-trifluoromethyl-benzamide] |
| 430 | CN(C(=O)c1cc(C(F)(F)F)cc(C(F)(F)F)c1)c1cnccc1-c1ccnc(Cl)c1F [Example 56, N-(2′-Chloro-3′-fluoro-[4,4′]bipyridinyl-3-yl)-N-methyl-3,5-bis-trifluoromethyl-benzamide] |
| 351 | Cc1cccnc1-c1ccncc1N(C)C(=O)c1cc(C(F)(F)F)cc(C(F)(F)F)c1 [Example 57, N-Methyl-N-(3-methyl-[2,4′]bipyridinyl-3′-yl)-3,5-bis-trifluoromethyl-benzamide] |
| 26 | COc1ccc(F)cc1-c1ccncc1N(C)C(=O)c1cc(C(F)(F)F)cc(C(F)(F)F)c1 [Example 58, N-[4-(5-Fluoro-2-methoxy-phenyl)-pyridin-3-yl]-N-methyl-3,5-bis-trifluoromethyl-benzamide] |
| 190 | COc1c(F)cc(F)cc1-c1ccncc1N(C)C(=O)c1cc(C(F)(F)F)cc(C(F)(F)F)c1 [Example 59, N-[4-(3,5-Difluoro-2-methoxy-phenyl)-pyridin-3-yl]-N-methyl-3,5-bis-trifluoromethyl-benzamide] |
| 114 | COc1c(-c2ccncc2N(C)C(=O)c2cc(C(F)(F)F)cc(C(F)(F)F)c2)ccc(F)c1F [Example 60, N-[4-(3,4-Difluoro-2-methoxy-phenyl)-pyridin-3-yl]-N-methyl-3,5-bis-trifluoromethyl-benzamide] |
| 72 | CN(C(=O)c1cc(C(F)(F)F)cc(C(F)(F)F)c1)c1cnccc1-c1cc(F)ccc1F [Example 61, N-[4-(2,5-Difluoro-phenyl)-pyridin-3-yl]-N-methyl-3,5-bis-trifluoromethyl-benzamide] |
| 337 | COc1cccc(-c2ccncc2N(C)C(=O)c2cc(C(F)(F)F)cc(C(F)(F)F)c2)c1F [Example 62, N-[4-(2-Fluoro-3-methoxy-phenyl)-pyridin-3-yl]-N-methyl-3,5-bis-trifluoromethyl-benzamide] |
| 23 | COc1ccc(F)c(-c2ccncc2N(C)C(=O)c2cc(C(F)(F)F)cc(C(F)(F)F)c2)c1 [Example 63, N-[4-(2-Fluoro-5-methoxy-phenyl)-pyridin-3-yl]-N-methyl-3,5-bis-trifluoromethyl-benzamide] |
| 14 | CN(C(=O)c1cc(C(F)(F)F)cc(C(F)(F)F)c1)c1cnccc1-c1c(F)cccc1F [Example 64, N-[4-(2,6-Difluoro-phenyl)-pyridin-3-yl]-N-methyl-3,5-bis-trifluoromethyl-benzamide] |
| 102 | CN(C(=O)c1cc(C(F)(F)F)cc(C(F)(F)F)c1)c1cnccc1-c1cccc(F)c1Cl [Example 65, N-[4-(2-Chloro-3-fluoro-phenyl)-pyridin-3-yl]-N-methyl-3,5-bis-trifluoromethyl-benzamide] |
| 8 | COc1cccc(F)c1-c1ccncc1N(C)C(=O)c1cc(C(F)(F)F)cc(C(F)(F)F)c1 [Example 66, N-[4-(2-Fluoro-6-methoxy-phenyl)-pyridin-3-yl]-N-methyl-3,5-bis-trifluoromethyl-benzamide] |
| 56 | CN(C(=O)c1cc(C(F)(F)F)cc(C(F)(F)F)c1)c1cnccc1-c1ccc(F)cc1Cl [Example 67, N-[4-(2-Chloro-4-fluoro-phenyl)-pyridin-3-yl]-N-methyl-3,5-bis-trifluoromethyl-benzamide] |
| 801 | CN(C(=O)c1cc(C(F)(F)F)cc(C(F)(F)F)c1)c1cnccc1-c1ncccc1F [Example 68, N-(3-Fluoro-[2,4′]bipyridinyl-3′-yl)-N-methyl-3,5-bis-trifluoromethyl-benzamide] |
| 377 | COc1cnccc1-c1ccncc1N(C)C(=O)c1cc(C(F)(F)F)cc(C(F)(F)F)c1 [Example 69, N-(3′-Methoxy-[4,4′]bipyridinyl-3-yl)-N-methyl-3,5-bis-trifluoromethyl-benzamide] |
| 485 | CN(C(=O)c1cc(C(F)(F)F)cc(C(F)(F)F)c1)c1cnccc1-c1ccncc1F [Example 70, N-(3′-Fluoro-[4,4′]bipyridinyl-3-yl)-N-methyl-3,5-bis-trifluoromethyl-benzamide] |
| 1540 | CN(C(=O)c1cc(C(F)(F)F)cc(C(F)(F)F)c1)c1cnccc1-c1cccc(Cl)n1 [Example 71, N-(6-Chloro-[2,4′]bipyridinyl-3′-yl)-N-methyl-3,5-bis-trifluoromethyl-benzamide] |
| 593 | Cc1cc(F)ccc1-c1cc(Cl)ncc1N(C)C(=O)c1cc(C(F)(F)F)cc(C(F)(F)F)c1 [Example 72, N-[6-Chloro-4-(4-fluoro-2-methyl-phenyl)-pyridin-3-yl]-N-methyl-3,5-bis-trifluoromethyl-benzamide] |
